Some test systems named below: CCRF-CEM leukemia; MALME-3M melanoma; PC-3 prostate; SK-MEL-28 melanoma; MDA-N; HOP-92 NSCLC; NCI-H23 lung; OVCAR-5 ovarian; HL-60(TB) leukemia; HOP-62 NSCLC.
Test in all cases: growth of human tumour cells (NCI), 48 h

Values joined by “and” are separate entries in the source; they are usually repeats but may differ in a detail not shown here. Identical values can stand only once.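 Cells were grown in 96-well plates and exposed to each compound for 48 hours at five concentrations; endpoints were interpolated linearly between bracketing concentrations, or set to the highest concentration if not reached. The concentration for 50% growth inhibition is given as GI50. TGI is the concentration that stops growth completely.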 Where only a bound is given, the exact number is not on record here.

For `COC(=O)C1=CON2C3CC4CC(C3)CC(C4)C12C` (configuration not stated), the TGI in the assay on CCRF-CEM leukemia, in the assay with MALME-3M melanoma, in the assay with PC-3 prostate, in the assay on SK-MEL-28 melanoma, in the assay on MDA-N and in the assay with HOP-92 NSCLC was above 100 µM each time. Besides, the TGI in the assay with NCI-H23 lung, with OVCAR-5 ovarian, with HL-60(TB) leukemia and with HOP-62 NSCLC was above 100 µM each time.
Turning to `CCOC(=O)c1[nH]c2cccc3c2c1CC[C@H](NC(=O)C(F)(F)F)C3=O`, the TGI was above 100 µM in the assay with CCRF-CEM leukemia; above 100 µM in the assay with MALME-3M melanoma; above 100 µM in the assay on PC-3 prostate; 0.0458 µM in the assay on SK-MEL-28 melanoma; above 100 µM with MDA-N; 69.4 µM in the assay on HOP-92 NSCLC. The TGI with NCI-H23 lung is above 100 µM; in the assay with OVCAR-5 ovarian it was above 100 µM; in the assay on HL-60(TB) leukemia, above 100 µM; in the assay with HOP-62 NSCLC it was 72.5 µM.
`CCN(CC)CCOC(=O)Cc1cccc2c(=O)cc(-c3ccccc3)oc12`: the GI50 is 336 µM with CCRF-CEM leukemia; 64.7 µM with MALME-3M melanoma; 115 µM with SK-MEL-28 melanoma; 8.02 µM with HOP-92 NSCLC; 58.7 µM in the assay with NCI-H23 lung; 137 µM in the assay with OVCAR-5 ovarian. For the same compound, the GI50 in the assay with HL-60(TB) leukemia is 3.86 µM; in the assay on HOP-62 NSCLC, 25.9 µM. Further, the TGI was 62.5 µM and 165 µM in the assay on MALME-3M melanoma; 62.5 µM in the assay on PC-3 prostate; 62.5 µM and > 237 µM in the assay on SK-MEL-28 melanoma; 62.5 µM in the assay on MDA-N; 42.6 µM and 82.5 µM with HOP-92 NSCLC; 62.5 µM and > 147 µM with NCI-H23 lung. The TGI with OVCAR-5 ovarian was 62.5 µM and > 197 µM; with HL-60(TB) leukemia, 44.6 µM; with HOP-62 NSCLC it was 62.5 µM and > 144 µM.
Consider `COc1ccc([C@]23CCN4COC[C@@H]([C@H]42)C2(CC3)OCC(C)(C)CO2)cc1OC`, for which the TGI in the assay with CCRF-CEM leukemia, with MALME-3M melanoma, with PC-3 prostate, with SK-MEL-28 melanoma, in the assay with MDA-N and in the assay on HOP-92 NSCLC was above 100 µM each time. Besides, the TGI in the assay on NCI-H23 lung, with OVCAR-5 ovarian, in the assay on HL-60(TB) leukemia and with HOP-62 NSCLC was above 100 µM each time.
As for `O=C1CS(=O)(=O)C(c2cccc(Oc3ccccc3)c2)N1c1ccccc1` (configuration not stated), the TGI in the assay on CCRF-CEM leukemia was above 100 µM; in the assay with MALME-3M melanoma, 42.6 µM; in the assay with PC-3 prostate, 66.8 µM; in the assay with SK-MEL-28 melanoma, 85.4 µM; with MDA-N it was 44.2 µM; in the assay with HOP-92 NSCLC it was 32.8 µM. Besides, the TGI is 94.6 µM with NCI-H23 lung, above 100 µM in the assay with OVCAR-5 ovarian, above 100 µM with HL-60(TB) leukemia and above 100 µM with HOP-62 NSCLC.
Turning to `CCOC(=O)C(=O)CC(=O)C1=C(c2ccccc2OC)CC(c2cccs2)=CC1=O`, the TGI with CCRF-CEM leukemia, in the assay with MALME-3M melanoma, in the assay on PC-3 prostate, in the assay with SK-MEL-28 melanoma, in the assay on MDA-N and in the assay with HOP-92 NSCLC was above 100 µM each time. Besides, the TGI in the assay with NCI-H23 lung, in the assay with OVCAR-5 ovarian, with HL-60(TB) leukemia and in the assay with HOP-62 NSCLC was above 100 µM throughout.
As for `COC1(c2cccs2)c2ccccc2C(OC)(c2cccs2)c2ccccc21` (configuration not stated), the TGI in the assay with CCRF-CEM leukemia, in the assay with MALME-3M melanoma, in the assay with PC-3 prostate, in the assay on SK-MEL-28 melanoma, in the assay on MDA-N and in the assay with HOP-92 NSCLC was above 100 µM each time. Besides, the TGI in the assay on NCI-H23 lung, in the assay with OVCAR-5 ovarian, in the assay with HL-60(TB) leukemia and in the assay with HOP-62 NSCLC was above 100 µM each time.
As to `COC1=C2C=[N+](C)C3C(=C2C=CC1OC)Cc1cc2c(cc13)OCO2` (configuration not stated), the TGI with CCRF-CEM leukemia is above 100 µM; in the assay with MALME-3M melanoma, 18.8 µM; in the assay with PC-3 prostate it was 39.3 µM; in the assay with SK-MEL-28 melanoma, 47.4 µM; with MDA-N it was 23.6 µM; with HOP-92 NSCLC it was 49.3 µM. For the same compound, the TGI in the assay with NCI-H23 lung was found to be 30.6 µM; in the assay with OVCAR-5 ovarian it was 32.1 µM; with HL-60(TB) leukemia, 15.7 µM; in the assay on HOP-62 NSCLC it was 26.8 µM.
Turning to `CCCC(=O)NC(Nc1ccc(F)cc1)(C(F)(F)F)C(F)(F)F`, the TGI was above 26.7 µM in the assay with CCRF-CEM leukemia; above 100 µM in the assay with MALME-3M melanoma; above 100 µM in the assay with PC-3 prostate; above 100 µM in the assay on SK-MEL-28 melanoma; above 100 µM in the assay on MDA-N; above 100 µM in the assay with HOP-92 NSCLC. For the same compound, the TGI in the assay on NCI-H23 lung, with OVCAR-5 ovarian, in the assay with HL-60(TB) leukemia and in the assay on HOP-62 NSCLC was above 100 µM in each case.
For `CCCc1nnc2sc(COc3cc(Cl)c(OCc4nn5c(CCC)nnc5s4)cc3Cl)nn12`, the TGI in the assay with CCRF-CEM leukemia is 46.8 µM; in the assay on MALME-3M melanoma it was above 100 µM; in the assay with PC-3 prostate, above 100 µM; in the assay on SK-MEL-28 melanoma it was above 100 µM; with MDA-N it was above 100 µM; in the assay with HOP-92 NSCLC, 70.7 µM. Also, the TGI with NCI-H23 lung was above 100 µM; in the assay with OVCAR-5 ovarian, above 100 µM; in the assay on HL-60(TB) leukemia it was 80.5 µM; with HOP-62 NSCLC it was above 100 µM.

(Values after PubChem BioAssay (NCI).)
